Consider 23 compounds from patent US6627651B1, “Cyclic compounds and uses thereof” (Takeda Chemical Industries, Ltd., priority 1999, dated 2003).

For the first data set, the target named is T1, human CCR5 (Homo sapiens, UniProt P51681).
T1 construct: expressed in transfected cells
T1 sequence (P51681 whole entry): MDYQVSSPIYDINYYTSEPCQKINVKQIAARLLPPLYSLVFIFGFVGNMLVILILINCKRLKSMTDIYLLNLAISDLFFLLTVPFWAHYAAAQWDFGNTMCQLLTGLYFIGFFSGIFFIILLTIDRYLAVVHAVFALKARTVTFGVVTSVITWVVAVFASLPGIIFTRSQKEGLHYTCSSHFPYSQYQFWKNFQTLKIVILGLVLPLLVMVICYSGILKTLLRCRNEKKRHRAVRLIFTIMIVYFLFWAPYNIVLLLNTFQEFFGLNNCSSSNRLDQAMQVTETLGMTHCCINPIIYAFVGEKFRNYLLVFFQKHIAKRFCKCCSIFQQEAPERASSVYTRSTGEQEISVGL
Briefly: CCR5-binding inhibition: [125I]-RANTES binding to CHO/CCR5 cells. The following applies: test compound 1 μM; ligand [125I]-RANTES 100 pM; CHO/CCR5 strains; room temperature, 30 minutes. Here is the method: After CHO-K1 cells, which were grown in a 750-ml, tissue culture flask (Beckton, Dickinson and Company) using Ham F12 medium (Nihon Pharmaceutical Co., Ltd.) containing 10% fetal calf serum (Life Technologies Oriental, Inc.), were removed from the flask with 0.5/L trypsin-0.2 g/L EDTA (Life Technologies Oriental, Inc.), the cells were washed with PBS (Life Technologies Oriental, Inc.), were centrifuged (1000 rpm, 5 minutes) and were suspended in PBS. Next, DNA was introduced into the cells by the use of Gene Pulser (Bio-Rad Laboratories Inc.) under the following conditions. In other words, 8×10^6 cells and 10 μg human CCR5 expression plasmid pCKR5 were added into a cuvette with a 0.4-cm gap, and the cells were electroporated at 0.25 kV under a capacitance of 960 μF. Subsequently, the cells were transferred to Ham F12 medium containing 10% fetal calf serum, and were cultivated for 24 hours. The cells were then removed from the flask again for centrifugation, were then suspended in Ham F12 medium containing 10% fetal serum albumin containing geneticin (Life Technologies Oriental, Inc.) at a final concentration of 500 μg/ml, were diluted to 10^4 cells/ml and were seeded into 96-well plates (Beckton, Dickinson and Company) to obtain geneticin-resistant strains.
Next, after the thus-obtained geneticin-resistant strains were cultivated in a 96-well plate (Beckton, Dickinson and Company), cells expressing CCR5 were selected from the resistant strains. In other words, the binding reaction was carried out at room temperature for 40 minutes in an assay buffer (Ham F12 medium containing 0.5% BSA and 20 mM HEPES (Wako Pure Chemical Industries, Ltd.)) that is supplemented with 200 pM [^125I]-RANTES (Amersham plc) as a ligand, and the cells were washed with ice-cold PBS, were then stirred after adding 50 μl/well of 1M NaOH and were counted for radioactivity in a γ-counter to select CHO/CCR5 strains, the cells to which the ligand was specifically bound.
CHO/CCR5 strains were seeded into 96-well microplates at a density of 5×10^4 cells/well, and were cultivated for 24 hours. After the culture fluid was removed by suction, the assay buffer containing a test compound (1 μM) was added to each well, and a ligand [^125I]-RANTES (Amersham Corporation) was added to a final concentration of 100 pM, after which the reaction was carried out at room temperature for 30 minutes. Next, after the assay buffer was removed by suction, the cells were washed twice with ice-cold PBS. Subsequently, 200 μl of MicroScint-20 (Packard Industry Company, Inc.) was added to each well, which was counted for radioactivity in a Top Count (Packard Industry Company, Inc.).
Percentages of CCR5-binding inhibition by test compounds were determined according to the method described above.
Take `CCCOc1ccc(CCOc2ccc3c(c2)C=C(C(=O)Nc2ccc(CN(C)C4CCOCC4)cc2)CCS3(=O)=O)cc1` [Compound 19, N-[4-[N-methyl-N-(tetrahydropyran-4-yl)aminomethyl]phenyl]-7-[4-(propoxyphenethyl)oxy]-1,1-dioxo-2,3-dihydro-1-benzothiepine-4-carboxamide]: the “Inhibition of binding (%)” value came out at 86%.

Turning to `Cc1ccc(-c2ccc3c(c2)C=C(C(=O)Nc2ccc(CC4=NCCN4)cc2)CCO3)cc1` [Compound 94], the “Inhibition of binding (%)” value is on record as 76%.

As usually defined, the inhibition is the change of the read-out against control, counted positive when it falls. A high value points to a response far below the control. Compound `CCCOc1ccc(CCCOc2ccc3c(c2)C=C(C(=O)Nc2ccc(CN(C)C4CCOCC4)cc2)CCS3(=O)=O)cc1` [Compound 121, N-[4-[[N-methyl-N-(tetrahydropyran-4-yl)amino]methyl]phenyl]-7-[3-(4-propoxyphenyl)propoxy]-1,1-dioxo-2,3-dihydro-1-benzothiepine-4-carboxamide] registered an inhibition at 1 µM of 82%.

In turn, `Cc1ccc(-c2ccc3c(c2)C=C(C(=O)NC2CCN(C4CCOCC4)CC2)CCO3)cc1` [Compound 56, N-(1-(tetrahydropyran-4-yl)piperidin-4-yl)-7-(4-methylphenyl)-2,3-dihydro-1-benzooxepine-4-carboxamide] displayed an inhibition at 1 µM of 74%.

Turning to `CCCOc1ccc(COc2ccc3c(c2)C=C(C(=O)Nc2ccc(CN(C)C4CCOCC4)cc2)CCS3(=O)=O)cc1` [Compound 100], the “Inhibition of binding (%)” value is 89%.

`CCCOCCOc1ccc(COc2ccc3c(c2)C=C(C(=O)Nc2ccc(CN(C)C4CCOCC4)cc2)CCS3(=O)=O)cc1` [Compound 108, N-[4-[[N-methyl-N-(tetrahydropyran-4-yl)amino]methyl]phenyl]-7-[[4-(2-propoxyethoxy)benzyl]oxy]-1,1-dioxo-2,3-dihydro-1-benzothiepine-4-carboxamide]: the inhibition at 1 µM was determined as 86%.

Regarding `CCCOc1cccc(COc2ccc3c(c2)C=C(C(=O)Nc2ccc(CN(C)C4CCOCC4)cc2)CCS3(=O)=O)c1` [Compound 20], the “Inhibition of binding (%)” value stood at 94%.

On to `CCCOc1ccccc1COc1ccc2c(c1)C=C(C(=O)Nc1ccc(CN(C)C3CCOCC3)cc1)CCS2(=O)=O` [Compound 21, N-[4-[N-methyl-N-(tetrahydropyran-4-yl)aminomethyl]phenyl]-7-[(2-propoxybenzyl)oxy]-1,1-dioxo-2,3-dihydro-1-benzothiepine-4-carboxamide], for which at 1 µM the inhibition was 98%.

Tested on in a further data set: not given
Assay: not given
Conditions: not given
One may read the melting point as the temperature of the solid-liquid transition. `CCCOc1ccc(CCCOc2ccc3c(c2)C=C(C(=O)Nc2ccc(CN(C)C4CCOCC4)cc2)CCS3(=O)=O)cc1` [Compound 121, N-[4-[[N-methyl-N-(tetrahydropyran-4-yl)amino]methyl]phenyl]-7-[3-(4-propoxyphenyl)propoxy]-1,1-dioxo-2,3-dihydro-1-benzothiepine-4-carboxamide] had a melting point of 178 to 181 °C.

For the compound `Cc1ccc(-c2ccc3c(c2)C=C(C(=O)NC2CCN(C4CCOCC4)CC2)CCO3)cc1` [Compound 56, N-(1-(tetrahydropyran-4-yl)piperidin-4-yl)-7-(4-methylphenyl)-2,3-dihydro-1-benzooxepine-4-carboxamide], the melting point is 199 to 204 °C (dec.).

The compound `CCCOCCOc1ccc(COc2ccc3c(c2)C=C(C(=O)Nc2ccc(CN(C)C4CCOCC4)cc2)CCS3(=O)=O)cc1` [Compound 108, N-[4-[[N-methyl-N-(tetrahydropyran-4-yl)amino]methyl]phenyl]-7-[[4-(2-propoxyethoxy)benzyl]oxy]-1,1-dioxo-2,3-dihydro-1-benzothiepine-4-carboxamide] registered a melting point of 175 to 176 °C.

Turning to `CCCOCCOc1ccc(COc2ccc3c(c2)C=C(C(=O)Nc2ccc(CN(C)C4CCOCC4)cc2)CCS3(=O)=O)cc1OCC` [Compound 110, 7-[[3-ethoxy-4-(2-propoxyethoxy)benzyl]oxy]-N-[4-[[N-methyl-N-(tetrahydropyran-4-yl)amino]methyl]phenyl]-1,1-dioxo-2,3-dihydro-1-benzothiepine-4-carboxamide], the melting point was in the range of 146 to 147 °C.

In the case of `COc1ccccc1COc1ccc2c(c1)C=C(C(=O)Nc1ccc(CN(C)C3CCOCC3)cc1)CCS2(=O)=O` [Compound 102, 7-[(2-methoxybenzyl)oxy]-N-[4-[[N-methyl-N-(tetrahydropyran-4-yl)amino]methyl]phenyl]-1,1-dioxo-2,3-dihydro-1-benzothiepine-4-carboxamide], the melting point lay within 223 to 225 °C.

The compound `CCCOc1ccccc1COc1ccc2c(c1)C=C(C(=O)Nc1ccc(CN(C)C3CCOCC3)cc1)CCS2(=O)=O` [Compound 21, N-[4-[N-methyl-N-(tetrahydropyran-4-yl)aminomethyl]phenyl]-7-[(2-propoxybenzyl)oxy]-1,1-dioxo-2,3-dihydro-1-benzothiepine-4-carboxamide] had a melting point of 190 to 192 °C.

`CCOc1ccccc1COc1ccc2c(c1)C=C(C(=O)Nc1ccc(CN(C)C3CCOCC3)cc1)CCS2(=O)=O` [Compound 101, 7-[(2-ethoxybenzyl)oxy]-N-[4-[[N-methyl-N-(tetrahydropyran-4-yl)amino]methyl]phenyl]-1,1-dioxo-2,3-dihydro-1-benzothiepine-4-carboxamide] came in with a melting point of 211 to 214 °C.

On to `CCCOCc1ccccc1Oc1ccc2c(c1)C=C(C(=O)Nc1ccc(CN(C)C3CCOCC3)cc1)CCS2(=O)=O` [Compound 115, N-[4-[[N-methyl-N-(tetrahydropyran-4-yl)amino]methyl]phenyl]-7-(2-propoxymethylphenoxy)-1,1-dioxo-2,3-dihydro-1-benzothiepine-4-carboxamide], for which the melting point lay in the range of 162 to 164 °C.

`Cc1ccc(-c2ccc3cc(C(=O)Nc4ccc(CN(C)C5CCOCC5)cc4)[nH]c3c2)cc1` [Compound 23, 6-(4-methylphenyl)-N-[4-[N-methyl-N-(tetrahydropyran-4-yl)aminomethyl]phenyl]-1H-indole-2-carboxamide]: the melting point was in the range of 246 to 250 °C.

Compound `Cc1ccc(C2=Cc3cc(C(=O)Nc4ccc(CN(C)C5CCOCC5)cc4)ccc3OC2)cc1` [Compound 22, 3-(4-methylphenyl)-N-[4-[N-methyl-N-(tetrahydropyran-4-yl)aminomethyl]phenyl]-2H-1-benzopyran-6-carboxamide] returned a melting point of 230 to 235 °C.

`C[N+]1(Cc2ccc(NC(=O)c3cccc(OCc4cccc5ccccc45)c3)cc2)CCCCC1.[I-]` [Compound 89, 1-methyl-1-[4-[3-(1-naphthylmethoxy)benzoylamino]benzyl]piperidinium iodide]: the melting point was in the range of 211 to 213 °C.

For the compound `CCCOCCOc1ccccc1COc1ccc2c(c1)C=C(C(=O)Nc1ccc(CN(C)C3CCOCC3)cc1)CCS2(=O)=O` [Compound 99, N-[4-[[N-methyl-N-(tetrahydropyran-4-yl)amino]methyl]phenyl]-7-[[2-(2-propoxyethoxy)benzyl]oxy]-1,1-dioxo-2,3-dihydro-1-benzothiepine-4-carboxamide], the melting point lay within 136 to 138 °C.

Compound `Cc1ccc(-c2ccc3c(c2)C=C(C(=O)N[C@H]2CC[C@H](CN(C)C4CCN(C(=O)OC(C)(C)C)CC4)CC2)CCO3)cc1` [Compound 65, trans-N-[4-[N-(1-tert-butoxycarbonylpiperidin-4-yl)-N-methylaminomethyl]cyclohexyl]-7-(4-methylphenyl)-2,3-dihydro-1-benzooxepine-4-carboxamide] yielded a melting point of 146 to 150 °C.

As to `CCCOc1cccc(CCOc2ccc3c(c2)C=C(C(=O)Nc2ccc(CN(C)C4CCOCC4)cc2)CCS3(=O)=O)c1` [Compound 105, N-[4-[[N-methyl-N-(tetrahydropyran-4-yl)amino]methyl]phenyl]-7-[(3-propoxyphenethyl)oxy]-1,1-dioxo-2,3-dihydro-1-benzothiepine-4-carboxamide], the melting point was 153 to 154 °C.

Consider `CN(Cc1ccc(NC(=O)C2=Cc3cc(OCc4ccccc4Cl)ccc3S(=O)(=O)CC2)cc1)C1CCOCC1` [Compound 103, 7-[(2-chlorobenzyl)oxy]-N-[4-[[N-methyl-N-(tetrahydropyran-4-yl)amino]methyl]phenyl]-1,1-dioxo-2,3-dihydro-1-benzothiepine-4-carboxamide], for which the melting point lay in the range of 205 to 207 °C.

Take `CCCOc1ccc(Oc2ccc3c(c2)C=C(C(=O)Nc2ccc(CN(C)C4CCOCC4)cc2)CCS3(=O)=O)cc1` [Compound 111, N-[4-[[N-methyl-N-(tetrahydropyran-4-yl)amino]methyl]phenyl]-7-(4-propoxyphenoxy)-1,1-dioxo-2,3-dihydro-1-benzothiepine-4-carboxamide]: the melting point lay in the range of 139 to 141 °C.

Turning to `Cc1ccc(-c2ccc3c(c2)C=C(C(=O)NC2CCN(C)CC2)CCO3)cc1` [Compound 61, N-(1-methylpiperidin-4-yl)-7-(4-methylphenyl)-2,3-dihydro-1-benzooxepine-4-carboxamide], the melting point lay in the range of 180 to 182 °C.

In turn, `Cc1ccc(-c2ccc3c(c2)C=C(C(=O)NC2CCNCC2)CCO3)cc1` [Compound 54, N-(4-piperidinyl)-7-(4-methylphenyl)-2,3-dihydro-1-benzooxepine-4-carboxamide] returned a melting point of 183 to 185 °C.

In turn, `Cc1ccc(-c2ccc3c(c2)C=C(C(=O)NC2CCN(CC4=CCCCCCCC4)CC2)CCO3)cc1` [Compound 59, N-(1-(cyclononen-1-yl)methylpiperidin-4-yl)-7-(4-methylphenyl)-2,3-dihydro-1-benzooxepine-4-carboxamide] registered a melting point of 128 to 130 °C.
